Consider 76 compounds from PubChem BioAssay AID493138 (Sanford-Burnham Center for Chemical Genomics, 2011).

Active and inactive are the calls of the source. No rule for the calls is given here. Where only a bound is given, the exact number is not on record here.

The assay has as its target Alkaline phosphatase, placental type (Homo sapiens) (UniProt P05187). Nature of the assay: PLAP enzyme inhibition by analogs, SAR follow-up, selectivity assay for human IAP inhibitor project, biochemical, human PLAP isozyme (AID 493138). The note with it: purified placental alkaline phosphatase, enzyme activity.
In general, IC50 refers to the concentration needed to halve the response being measured. For `Cc1ccc(Nc2nc(-c3ccc(O)cc3O)cs2)cc1`, the IC50 is > 100 µM (inactive). Regarding `COC(=O)/C=C1/S/C(=N/NC(=O)c2ccccc2)NC1=O`, the IC50 was > 100 µM (inactive). To `Cc1ccc(Nc2nc(-c3ccc(O)c(O)c3)cs2)cc1F` belongs > 100 µM (inactive); to `Cc1ccc(Nc2nc(-c3ccc(O)c(C(N)=O)c3)cs2)cc1`, > 100 µM (inactive); to `COc1ccc(C=NN=C2SC(CC(=O)O)C(=O)N2c2ccc(O)cc2)cc1` (stereo unspecified), > 100 µM (inactive). Under `CCOc1ccc(Nc2nc(-c3ccc(O)c(O)c3)cs2)cc1` stands > 100 µM (inactive). As for `COC(=O)/C=C1/S/C(=N/NC(=O)c2ccc(Cl)cc2Cl)NC1=O`, the IC50 was > 100 µM (inactive). Turning to `O=S(=O)(Nc1ncccn1)c1ccc(NC(=S)NCCC(c2ccccc2)c2ccccc2)cc1`, the IC50 is > 100 µM (inactive).

In the case of `N#CCCn1cc(/C=N/N=C2/NC(=O)C(CC(=O)O)S2)c(-c2ccc(F)cc2)n1` (stereo unspecified), the IC50 was > 100 µM (inactive). To `O=[N+]([O-])c1ccccc1NC(=S)NN=Cc1ccc(O)c(O)c1` belongs 8.24 µM. To `CCc1ccccc1Nc1nc(-c2ccc(O)c(O)c2)cs1` belongs > 100 µM (inactive). To `CCOc1cc(C=N/N=C2/NC(=O)C(CC(=O)O)S2)ccc1OCc1ccccc1Cl` (stereo unspecified) belongs > 100 µM (inactive). Regarding `COC(=O)/C=C1/S/C(=N/N=Cc2ccc(N(C)C)cc2)NC1=O`, the IC50 is > 100 µM (inactive). Under `Cc1ccc(C)c(Nc2nc(-c3ccc(O)cc3O)cs2)c1` stands > 100 µM (inactive); under `Oc1ccc(-c2csc(Nc3ccc(F)cc3)n2)cc1O`, > 100 µM (inactive); under `O=[N+]([O-])c1ccc(NC(=S)NCCC(c2ccccc2)c2ccccc2)cc1`, > 100 µM (inactive).

`COc1ccc(-c2csc(Nc3cccc4ccccc34)n2)cc1F`: the IC50 was > 100 µM (inactive).

Consider `CCOc1cc(C=NNC(=S)NC2CCCCC2)ccc1O`, for which the IC50 is > 100 µM (inactive). On to `COc1ccc(-c2csc(Nc3cccc4ccccc34)n2)cc1`, for which the IC50 was > 100 µM (inactive). Under `Oc1ccc(-c2csc(Nc3ccccc3)n2)c(O)c1` stands > 100 µM (inactive); under `COc1cc(/C=N/N=C2/SCC(=O)N2c2ccc(O)cc2)ccc1O`, > 100 µM (inactive).

`COc1ccc(/C=N/N=C2\NC(=O)C(CC(=O)O)S2)c(OC)c1` (stereo unspecified): the IC50 is > 100 µM (inactive). To `COc1ccc(Cl)cc1Nc1nc(-c2ccc(O)c(O)c2)cs1` belongs > 100 µM (inactive).

With `COC(=O)/C=C1/S/C(=N/NC(=O)c2ccccc2OC)NC1=O`, the IC50 was > 100 µM (inactive). For the compound `COc1ccc(C=NNC(=S)Nc2ccccc2[N+](=O)[O-])cc1O`, the IC50 is > 100 µM (inactive).

Consider `Cc1ccc(Nc2nc(-c3ccc(O)cc3O)cs2)cc1C`, for which the IC50 was > 100 µM (inactive). Under `COc1cc(C=NNC(=S)Nc2cccc(C(=O)O)c2)ccc1O` stands > 100 µM (inactive). Under `Cc1cccc(C)c1NC(=S)N/N=C/c1ccc(O)c(O)c1O` stands > 100 µM (inactive).

For the compound `COc1cc(C=NN=C2SC(CC(=O)O)C(=O)N2c2ccc(O)cc2)ccc1O` (stereo unspecified), the IC50 was > 100 µM (inactive). With `Cc1cc(C)cc(Nc2nc(-c3ccc(O)cc3O)cs2)c1`, the IC50 is > 100 µM (inactive). `Cc1cccc(NC(=S)NNC(=O)c2ccc3c(c2)OCO3)c1`: the IC50 is > 100 µM (inactive).

Consider `O=S(=O)(c1ccc(NC(=S)N/N=C/c2ccc(O)c(O)c2)cc1)N1CCOCC1`, for which the IC50 is > 100 µM (inactive). Under `Cc1cccc2sc(NNC(=O)c3ccc4c(c3)OCCO4)nc12` stands > 100 µM (inactive); under `CN(C)S(=O)(=O)c1cccc(NC(=S)NN=Cc2ccc(O)c(O)c2O)c1`, > 100 µM (inactive); under `Cn1c(=S)n(N=Cc2ccc3c(c2)OCO3)c2ccccc21`, > 100 µM (inactive). As for `COC(=O)C/C=N/N=C1\NC(=O)/C(=C/C(=O)O)S1`, the IC50 was > 100 µM (inactive). To `Cc1ccc(Nc2nc(-c3ccc(O)cc3O)cs2)cc1F` belongs > 100 µM (inactive); to `CCOc1cc(/C=N/N=C2\NC(=O)C(CC(=O)O)S2)ccc1O` (stereo unspecified), > 100 µM (inactive). Take `S=C(NCCC(c1ccccc1)c1ccccc1)Nc1ccc(Cl)cc1Cl`: the IC50 was > 100 µM (inactive). Consider `COc1cccc(Nc2nc(-c3ccc(O)cc3)cs2)c1`, for which the IC50 was > 100 µM (inactive). As for `O=[N+]([O-])c1ccccc1NC(=S)N/N=C/c1ccc(O)c(O)c1O`, the IC50 was > 100 µM (inactive).

For the compound `COC(=O)/C=C1\SC(N=Nc2c(O)[nH]c3ccccc23)=NC1=O`, the IC50 is > 100 µM (inactive). Under `O=S(=O)(c1ccc(NC(=S)N/N=C/c2ccc(O)c(O)c2O)cc1)N1CCOCC1` stands > 100 µM (inactive); under `COC(=O)/C=C1/S/C(=N/NC(=O)c2ccc(OC)cc2)NC1=O`, > 100 µM (inactive).

With `Cc1ccc(Nc2nc(-c3ccc(O)c(O)c3)cs2)cc1`, the IC50 was > 100 µM (inactive). Under `Cc1ccc2nc(NNC(=O)c3ccc4c(c3)OCCO4)sc2c1` stands > 100 µM (inactive); under `COc1cc([N+](=O)[O-])ccc1NC(=S)NNC(=O)c1ccc2c(c1)OCO2`, > 100 µM (inactive).

With `Cc1c(Cl)cccc1Nc1nc(-c2ccc(O)c(O)c2)cs1`, the IC50 was > 100 µM (inactive). Under `COC(=O)/C=C1/S/C(=N/NC(=O)c2ccccc2C)NC1=O` stands > 100 µM (inactive).

As to `O=C(O)CC1S/C(=N/N=C/c2ccco2)NC1=O` (stereo unspecified), the IC50 was > 100 µM (inactive). As to `CC(=NNC(=S)Nc1ccccc1)c1ccc2c(c1)OCO2`, the IC50 is > 100 µM (inactive).

Take `NS(=O)(=O)c1ccc(Nc2nc(-c3ccc(O)cc3O)cs2)cc1`: the IC50 is > 100 µM (inactive). To `NS(=O)(=O)c1ccc(Nc2nc(-c3ccc(O)c(O)c3)cs2)cc1` belongs 33.8 µM.

As to `Cc1cc(=O)oc2cc(NC(=S)NCCC(c3ccccc3)c3ccccc3)ccc12`, the IC50 is > 100 µM (inactive). Under `COc1cc(C=NNC(=S)Nc2cccc(S(=O)(=O)N(C)C)c2)cc(OC)c1O` stands > 100 µM (inactive); under `COc1cc([N+](=O)[O-])ccc1NC(=S)NCCC(c1ccccc1)c1ccccc1`, > 100 µM (inactive).

Consider `COC(=O)/C=C1\S/C(=N/N=C/c2ccc(Cl)cc2)NC1=O`, for which the IC50 was > 100 µM (inactive). Consider `Cc1cccc(NC(=S)NN=Cc2ccc3c(c2)OCO3)c1`, for which the IC50 is > 100 µM (inactive). As for `COc1ccc(NC(=S)NCCC(c2ccccc2)c2ccccc2)cc1`, the IC50 was > 100 µM (inactive). Turning to `COC(=O)/C=C1\S/C(=N/N=C/CC(=O)OC)NC1=O`, the IC50 was > 100 µM (inactive). `COc1ccc(/C=N/N=C2/NC(=O)C(CC(=O)O)S2)cc1OC` (stereo unspecified): the IC50 is > 100 µM (inactive). Under `Oc1ccc(-c2csc(Nc3cccc4ccccc34)n2)cc1O` stands > 100 µM (inactive). Under `Cc1ccc(-c2ccc(/C=N/N=C3\NC(=O)C(CC(=O)O)S3)o2)c([N+](=O)[O-])c1` (stereo unspecified) stands > 100 µM (inactive); under `FC(F)(F)c1cccc(NC(=S)NCCC(c2ccccc2)c2ccccc2)c1`, > 100 µM (inactive); under `Oc1ccc(Nc2nc(-c3ccc(O)c(O)c3)cs2)cc1`, > 100 µM (inactive).

As to `COc1ccc(C=Nn2c(=S)n(C)c3ccccc32)cc1OC`, the IC50 was > 100 µM (inactive). Under `Cc1cccc(Nc2nc(-c3ccc(O)c(O)c3)cs2)c1` stands > 100 µM (inactive). To `Cc1ccc2sc(NNC(=O)c3ccc4c(c3)OCCO4)nc2c1C` belongs > 100 µM (inactive); to `CC(C)(C)c1ccc(/C=N/N=C2\NC(=O)C(CC(=O)O)S2)cc1` (stereo unspecified), > 100 µM (inactive).

Turning to `CCN(CC)S(=O)(=O)c1ccc(-c2csc(=Nc3cccc4ccccc34)n2C)cc1`, the IC50 was > 100 µM (inactive). To `Cc1cccc(Nc2nc(-c3ccc(O)c(C(N)=O)c3)cs2)c1` belongs > 100 µM (inactive). `Cc1ccc(Cl)cc1Nc1nc(-c2ccc(O)c(O)c2)cs1`: the IC50 is > 100 µM (inactive). For the compound `COc1cc(C=NNC(=S)Nc2cccc(S(=O)(=O)N(C)C)c2)ccc1O`, the IC50 is > 100 µM (inactive). Under `COc1ccc(C(=O)NNC(=S)NC2CCCCC2)cc1OC` stands > 100 µM (inactive); under `COc1cc(C(=O)NNC(=S)Nc2ccc(S(N)(=O)=O)cc2)cc(OC)c1OC`, > 100 µM (inactive); under `COc1cc(/C=N/N=C2\NC(=O)C(CC(=O)O)S2)cc(OC)c1OC` (stereo unspecified), > 100 µM (inactive).
